Results reported in patent US9388189B2, “Pyrrolotriazinone derivatives as PI3K inhibitors” (ALMIRALL, S.A., priority 2012, dated 2016).

Biological target: PI3Kδ (PI3Kd) (Homo sapiens (Human), UniProt O00329)
Assay: PI3K HTRF enzymatic inhibition assay (cell-free), delta isoform
Conditions: read-out: IC50 PI3Kd HTRF; recombinant PI3K delta, [ATP] 15 μM, [PIP2] 2 μM, 30 min preincubation
Excerpt: Compounds were screened for their ability to inhibit PI3Kα (PI3Ka), PI3Kβ (PI3Kb), PI3Kδ (PI3Kd) and PI3Kγ (PI3Kg) using a cell-free based PI3K HTRF™ assay (Millipore, ref. #33-017).
PI-3 Kinase HTRF kit (ref. #33-037) and the different PI3K recombinant isoforms (ref. #14-602, ref. #14-603, ref. #14-604, ref. #15-558 for Alpha, Beta, Delta and Gamma respectively) were purchased at Millipore (expressed in insect cells). ATP was purchased at Sigma Aldrich (ref. #A7699).
The compounds were pre-incubated with the enzyme for 30 min before starting of the catalytic reaction. [PIP2] was used at its Km. […] Time of assay and [Enzyme] were optimized to work in the linear range. Stop and Detection mixtures were used as specified in the Millipore PI-3 Kinase kit.
Reaction time and enzyme concentration in the assay will depend of each batch.
All experiments were analysed using Activity Base software from IDBS and the four-parameter log equation.

Chain of PI3Kδ (PI3Kd) (O00329 whole entry, canonical isoform): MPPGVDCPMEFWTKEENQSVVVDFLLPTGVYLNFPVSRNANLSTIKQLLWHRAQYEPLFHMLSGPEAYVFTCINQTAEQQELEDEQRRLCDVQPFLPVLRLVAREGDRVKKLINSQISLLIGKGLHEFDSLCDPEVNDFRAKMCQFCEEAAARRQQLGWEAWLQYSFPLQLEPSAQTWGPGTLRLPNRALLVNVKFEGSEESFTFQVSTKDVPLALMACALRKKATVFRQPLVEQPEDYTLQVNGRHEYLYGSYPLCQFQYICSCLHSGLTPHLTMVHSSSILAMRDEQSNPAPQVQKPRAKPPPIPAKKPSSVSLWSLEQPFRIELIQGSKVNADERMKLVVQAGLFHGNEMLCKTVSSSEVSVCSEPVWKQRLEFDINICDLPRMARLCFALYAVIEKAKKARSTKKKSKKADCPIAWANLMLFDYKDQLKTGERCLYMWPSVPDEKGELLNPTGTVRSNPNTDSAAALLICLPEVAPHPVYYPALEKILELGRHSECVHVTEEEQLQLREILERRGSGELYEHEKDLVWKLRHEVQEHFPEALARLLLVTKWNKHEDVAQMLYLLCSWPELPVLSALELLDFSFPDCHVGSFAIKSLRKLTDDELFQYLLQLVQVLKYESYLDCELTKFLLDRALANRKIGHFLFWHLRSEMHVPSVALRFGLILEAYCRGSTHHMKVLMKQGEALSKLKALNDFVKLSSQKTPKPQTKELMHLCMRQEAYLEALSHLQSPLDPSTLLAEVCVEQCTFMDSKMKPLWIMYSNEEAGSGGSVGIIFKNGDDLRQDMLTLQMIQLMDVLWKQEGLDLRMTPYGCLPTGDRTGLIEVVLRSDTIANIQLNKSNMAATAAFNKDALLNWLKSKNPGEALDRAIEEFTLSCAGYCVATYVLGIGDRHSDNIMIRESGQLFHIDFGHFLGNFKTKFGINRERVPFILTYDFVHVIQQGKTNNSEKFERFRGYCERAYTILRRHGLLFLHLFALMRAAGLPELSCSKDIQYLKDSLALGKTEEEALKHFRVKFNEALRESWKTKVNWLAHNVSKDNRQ
Chain of PI3Kδ (PI3Kd) (P27986 whole entry partner, canonical isoform): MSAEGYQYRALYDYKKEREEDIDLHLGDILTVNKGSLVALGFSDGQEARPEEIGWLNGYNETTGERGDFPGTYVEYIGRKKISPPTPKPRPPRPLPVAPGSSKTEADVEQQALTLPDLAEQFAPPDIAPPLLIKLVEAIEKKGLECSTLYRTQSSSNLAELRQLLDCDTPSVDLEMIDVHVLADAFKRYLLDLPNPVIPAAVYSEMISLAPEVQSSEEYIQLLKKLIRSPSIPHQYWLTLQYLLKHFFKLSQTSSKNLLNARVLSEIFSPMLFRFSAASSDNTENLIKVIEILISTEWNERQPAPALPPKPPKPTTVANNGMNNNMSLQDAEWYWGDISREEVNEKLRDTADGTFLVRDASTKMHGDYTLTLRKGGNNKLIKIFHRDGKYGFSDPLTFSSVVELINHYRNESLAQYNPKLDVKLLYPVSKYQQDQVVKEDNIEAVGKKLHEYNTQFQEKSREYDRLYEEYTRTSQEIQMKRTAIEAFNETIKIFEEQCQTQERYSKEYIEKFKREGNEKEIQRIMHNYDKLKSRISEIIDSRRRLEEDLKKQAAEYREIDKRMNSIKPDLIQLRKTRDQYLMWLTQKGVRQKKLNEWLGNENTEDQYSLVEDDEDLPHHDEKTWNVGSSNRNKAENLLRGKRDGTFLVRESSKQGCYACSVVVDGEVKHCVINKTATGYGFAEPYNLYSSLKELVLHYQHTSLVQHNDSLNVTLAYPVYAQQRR

| Structure (SMILES) | IC50 |
| --- | --- |
| Cc1ccn2nc([C@H](C)Nc3ncnc4[nH]cc(-c5cc(O)cc(NS(=O)(=O)CCN(C)C)c5)c34)n(-c3ccccc3)c(=O)c12 [Example 150, (S)-2-(Dimethylamino)-N-(3-hydroxy-5-(4-((1-(5-methyl-4-oxo-3-phenyl-3,4-dihydropyrrolo[2,1-f][1,2,4]triazin-2-yl)ethyl)amino)-7H-pyrrolo[2,3-d]pyrimidin-5-yl)phenyl)ethanesulfonamide] | 1 nM |
| Cc1ccn2nc([C@H](C)Nc3ncnc4[nH]cc(-c5ccn(CC(C)(C)CO)n5)c34)n(-c3ccccc3)c(=O)c12 [Example 155, (S)-2-(1-((5-(1-(3-Hydroxy-2,2-dimethylpropyl)-1H-pyrazol-3-yl)-7H-pyrrolo[2,3-d]pyrimidin-4-yl)amino)ethyl)-5-methyl-3-phenylpyrrolo[2,1-f][1,2,4]triazin-4(3H)-one] | 0.3 nM |
| Cc1ccn2nc([C@H](C)Nc3ncnc(N)c3-c3cc(O)cc(C(=O)N(C)C)c3)n(-c3ccccc3)c(=O)c12 [Example 156, (S)-3-(4-Amino-6-((1-(5-methyl-4-oxo-3-phenyl-3,4-dihydropyrrolo[2,1-f][1,2,4]triazin-2-yl)ethyl)amino)pyrimidin-5-yl)-5-hydroxy-N,N-dimethyl benzamide] | 1 nM |
| COc1ncc(-c2c(N)ncnc2N[C@@H](C)c2nn3ccc(C)c3c(=O)n2-c2ccccc2)cc1NS(=O)(=O)c1ccc(O)cc1 [Example 157, (S)—N-(5-(4-Amino-6-((1-(5-methyl-4-oxo-3-phenyl-3,4-dihydropyrrolo[2,1-f][1,2,4]triazin-2-yl)ethyl)amino)pyrimidin-5-yl)-2-methoxypyridin-3-yl)-4-hydroxybenzenesulfonamide] | 0.2 nM |
| Cc1ccn2nc([C@H](C)Nc3ncnc4[nH]cc(-c5ccn(Cc6ccccc6O)n5)c34)n(-c3ccccc3)c(=O)c12 [Example 159, (S)-2-(1-((5-(1-(2-Hydroxybenzyl)-1H-pyrazol-3-yl)-7H-pyrrolo[2,3-d]pyrimidin-4-yl)amino)ethyl)-5-methyl-3-phenylpyrrolo[2,1-f][1,2,4]triazin-4(3H)-one] | 4 nM |
| Cc1ccn2nc([C@H](C)Nc3ncnc4[nH]cc(-c5ccn(-c6cccc(O)c6)n5)c34)n(-c3ccccc3)c(=O)c12 [Example 163, (S)-2-(1-((5-(1-(3-Hydroxyphenyl)-1H-pyrazol-3-yl)-7H-pyrrolo[2,3-d]pyrimidin-4-yl)amino)ethyl)-5-methyl-3-phenylpyrrolo[2,1-f][1,2,4]triazin-4(3H)-one] | 0.2 nM |
| C[C@H](Nc1ncnc2[nH]cc(-c3cc(NS(C)(=O)=O)cc4[nH]ccc34)c12)c1nn2cccc2c(=O)n1-c1ccccc1 [Example 165, (S)—N-(4-(4-((1-(4-Oxo-3-phenyl-3,4-dihydropyrrolo[2,1-f][1,2,4]triazin-2-yl)ethyl)amino)-7H-pyrrolo[2,3-d]pyrimidin-5-yl)-1H-indol-6-yl)methanesulfonamide] | 5 nM |

The next lines start with the values.

| IC50 | Structure (SMILES) |
| --- | --- |
| 5 nM | Cc1ccn2nc([C@H](C)Nc3ncnc4[nH]cc(-c5cc(C(F)(F)F)nn5C)c34)n(-c3ccccc3)c(=O)c12 [Example 151, (S)-5-Methyl-2-(1-((5-(1-methyl-3-(trifluoromethyl)-1H-pyrazol-5-yl)-7H-pyrrolo[2,3-d]pyrimidin-4-yl)amino)ethyl)-3-phenylpyrrolo[2,1-f][1,2,4]triazin-4(3H)-one] |
| 100 nM | Cc1ccn2nc([C@H](C)Nc3ncnc(N)c3-c3ccc(N4CCN(C(=O)OC(C)(C)C)CC4)cc3)n(-c3ccccc3)c(=O)c12 [Example 152, (S)-tert-Butyl 4-(4-(4-amino-6-((1-(5-methyl-4-oxo-3-phenyl-3,4-dihydropyrrolo[2,1-f][1,2,4]triazin-2-yl)ethyl)amino)pyrimidin-5-yl)phenyl)piperazine-1-carboxylate] |
| 132 nM | Cc1ccn2nc([C@H](C)Nc3ncnc(N)c3-c3ccc(N4CCNCC4)cc3)n(-c3ccccc3)c(=O)c12 [Example 162, (S)-2-(1-((6-Amino-5-(4-(piperazin-1-yl)phenyl)pyrimidin-4-yl)amino)ethyl)-5-methyl-3-phenylpyrrolo[2,1-f][1,2,4]triazin-4(3H)-one] |
